Experimental findings from patent US20240166645A1, “PYRIDOPYRIMIDINONE DERIVATIVE, PREPARATION METHOD THEREFOR, AND USE THEREOF” (Wuhan Humanwell Innovative Drug Research and Development …, priority 2021, published 2024) are described below.

Series [1] deals with ERK phosphorylation level in DLD-1 cells. As to the kind of experiment: Inhibition of ERK phosphorylation level in DLD-1 cells (intracellular western blot). The format is cell-based. As to conditions: Homo sapiens. The protocol:
Intracellular western blot quantitative analysis was used to detect the inhibitory level of compounds on ERK phosphorylation in DLD-1 cells.
DLD-1 cells (ATCC, CCL-221) were seeded in a T75 culture flask at 2.5×10^6 cells/flask and cultured in a RPMI 1640 medium containing 10% FBS for 2 days. On day 3, the cells were seeded on a 384-well plate, and cultured overnight at 37° C., 5% CO2. After overnight culture, the plate was added with serially diluted compounds (the final content of DMSO was 0.5%), the negative group was added with DMSO, and incubated in a 37° C., 5% CO2 incubator.
The cells were fixed, washed once with PBS, treated to disrupt membranes, and blocked at room temperature for 1 h. The blocking solution was removed. The plate was added with primary antibody (CST, Cat. No. #4370S), and incubated overnight at 4° C. The plate was washed 3 times with PBST (PBS solution added with 0.05% Tween-20) and soaked for 2 min each time. The plate was added with secondary antibody (LI-COR, Cat. No. 926-32211) and incubated at room temperature in the dark. The plate was washed 3 times with PBST and soaked for 2 min each time. The plate was centrifuged at 1000 rpm for 1 min, scanned on a two-color infrared laser imaging system (Odyssey® CLX) to read the signal.
Relative signal=800-channel signal values/700-channel signal values.
Relative expression level of ERK phosphorylation=(test compound−control compound I)/(DMSO group−control compound I)
(§1) IC50 values were calculated using Graphpad 5 software.

A short description of series [2]: Plasma protein binding by equilibrium dialysis, human plasma. The format is in vitro ADME. The following applies: 37° C., read-out: Free fraction in plasma, Human (%). On the procedure: (§2) Plasma protein binding rate of compounds was detected by equilibrium dialysis (HTDialysis, HTD 96b). The compound was prepared into a […] stock solution with DMSO, and then 25-fold diluted with 0.05 M sodium phosphate buffer as a working solution. A blank 96-well plate was taken and preloaded with 380 μL of plasma per well. The plasma was then added with the working solution at 20 μL/well and mixed well, with the compound at a final concentration of 1 μM, containing 0.2% DMSO per well.
(§3) 100 μL of 0.05 M sodium phosphate buffer was added to the reception-side of each dialysis chamber (HTD 96b), and then 100 μL of plasma containing the compound was added to the supply-side. The dialysis chamber was covered with a plastic lid, shaken and incubated at 37° C. for 5 h.
(§4) After incubation, 25 μL of samples were taken from each of the supply-side and the reception-side of the dialysis chamber and placed in the blank 96-well plate. An equal volume of plasma was added to each of the supply-side samples while an equal volume of 0.05 M sodium phosphate buffer was added to each of the reception-side samples and mixed well. The 96-well plate was added with an acetonitrile solution containing internal standard at 200 μL per well, vortexed and shaken at 600 rpm for 10 min, and centrifuged at 5594 g for 15 min (Thermo Multifuge×3R). 50 μL of the supernatant was then transferred to a new 96-well plate, and the samples were mixed with 50 μL of ultra-pure water for LC-MS/MS analysis.
(§5) Plasma protein binding rate and free fraction were calculated using the following formulas: % binding rate=100×([supply-side concentration]5h−[reception-side concentration]5h)/[supply-side concentration]5h. % free fraction=100−% binding rate.
A general note: In equilibrium dialysis free small molecules cross a membrane that holds back macromolecules.

Series [3] is described as follows: Plasma protein binding by equilibrium dialysis, mouse plasma. It is filed as in vitro ADME. The following applies: 37° C., read-out: Free fraction in plasma, Mouse (%). On the procedure: as §2, §3, §4, §5
The next series concerns H358 cells. As to the kind of experiment: Inhibition of 3D cell proliferation (3D CellTiter-Glo). As to conditions: Homo sapiens, NCI-H358, 168 h, read-out: IC50 (nM), inhibition of 3D proliferation of H358 cells, 7 days. The format is cell-based. The protocol:
H358 cells were seeded in a T75 culture flask and cultured in a RPMI 1640 medium containing 10% FBS for 2 days for subsequent experiments in which the cells would be cultured or seeded on a 384-well plate.
On day 1, the cells were seeded on the 384-well plate, with 40 μL of medium added per well and serially diluted compounds or DMSO added per well, and an additional well without seeded cells but with medium was set up as a blank control. After culture at 37° C., 5% CO2 for 7 days, the plate was added with 3D CellTiter-Glo reagent (Promega, Cat. No. G9683) on day 8, shaken at 320 rpm for 20 min, and left at room temperature for 2 h. Luminescence signals were read on a multifunctional microplate reader. Cell viability inhibition rate was calculated as:
Cell viability inhibition rate=(DMSO group−test compound)/(DMSO group−blank control group)×100%
as §1
(Cellular ATP, detected with luciferase, serves as a proxy for viable cell number.)

The next series addresses KRAS G12C-SOS1 (Homo sapiens (Human), UniProt Q07889). As to the kind of experiment: Inhibition test of compounds on KRAS G12C::SOS1 binding. As to conditions: GST-KRAS G12C, His-SOS1. The protocol:
The compound to be tested was prepared into a 10 mM stock solution with DMSO, and the compound was serially diluted using 1× test buffer. 0.1 μL of the compound solution with different concentrations was transferred to a 384-well plate. […] 5 μL of His-SOS1 was added to the 384-well plate, centrifuged at 1000 rpm for 1 min, and incubated at room temperature for 15 min.
After incubation, 10 μL of a mixed solution of anti-6his-Tb monoclonal antibody (Cisbio, Cat. No. 61HI2TLA) and anti-GST-XL665 monoclonal antibody (Cisbio, Cat. No. 61GSTXLA) was added to the test well, centrifuged at 1000 rpm for 1 min, and incubated at room temperature for 1 h.
After incubation, the fluorescence signal ratios at 665 nm and 615 nm were read on a multifunctional microplate reader (Perkin Elmer, Envision 2104), and the IC50 values were calculated using Graphpad 5 software.

A short description of series [4]: Human liver microsome stability test. The format is in vitro ADME. The following applies: human liver microsomes; for Remaining percentage (%) of compound after incubation for 30 min: 37° C.; for half-life at 1 µM: human. The protocol:
The human liver microsome stability test was performed by incubating the compound and human liver microsomes in vitro. First, the compound to be tested was prepared into a 10 mM stock solution in DMSO solvent, and then the compound was diluted to 0.5 mM with acetonitrile. Human liver microsomes (Corning) were diluted with PBS into a microsome/buffer solution, and the solution was used to dilute 0.5 mM compound into a working solution, in which the concentration of the compound was 1.5 μM, and the concentration of human liver microsomes was 0.75 mg/mL. A deep-well plate was taken, 30 μL of the working solution was added per well, and then 15 μL of pre-heated 6 mM NADPH solution was added thereto to initiate a reaction, and the reaction was incubated at 37° C. At 0, 5, 15, 30 and 45 min of the incubation, 135 μL of acetonitrile was added to the corresponding wells to terminate the reaction. After the reaction was terminated with acetonitrile at the last time point of 45 min, the deep-well plate was vortexed and vibrated for 10 min (600 rpm/min), and then centrifuged for 15 min. After centrifugation, the supernatant was collected, and added with purified water in a ratio of 1:1 to perform LC-MS/MS detection. A ratio of a peak area of compound to a peak area of internal standard at each time point was obtained, and the peak area ratios of the compound at 5, 15, 30 and 45 min were compared with the peak area ratio at 0 min to calculate the remaining percentage of the compound at each time point. T1/2 was calculated by using GraphPad 5 software.
(In general: Microsomes from liver hold many membrane-bound enzymes, among them those of drug oxidation.)

One may read the half-life as the time needed for the level to fall by half in the phase considered.

Sequence of KRAS G12C-SOS1 (Q07889 whole entry, stated change not applied): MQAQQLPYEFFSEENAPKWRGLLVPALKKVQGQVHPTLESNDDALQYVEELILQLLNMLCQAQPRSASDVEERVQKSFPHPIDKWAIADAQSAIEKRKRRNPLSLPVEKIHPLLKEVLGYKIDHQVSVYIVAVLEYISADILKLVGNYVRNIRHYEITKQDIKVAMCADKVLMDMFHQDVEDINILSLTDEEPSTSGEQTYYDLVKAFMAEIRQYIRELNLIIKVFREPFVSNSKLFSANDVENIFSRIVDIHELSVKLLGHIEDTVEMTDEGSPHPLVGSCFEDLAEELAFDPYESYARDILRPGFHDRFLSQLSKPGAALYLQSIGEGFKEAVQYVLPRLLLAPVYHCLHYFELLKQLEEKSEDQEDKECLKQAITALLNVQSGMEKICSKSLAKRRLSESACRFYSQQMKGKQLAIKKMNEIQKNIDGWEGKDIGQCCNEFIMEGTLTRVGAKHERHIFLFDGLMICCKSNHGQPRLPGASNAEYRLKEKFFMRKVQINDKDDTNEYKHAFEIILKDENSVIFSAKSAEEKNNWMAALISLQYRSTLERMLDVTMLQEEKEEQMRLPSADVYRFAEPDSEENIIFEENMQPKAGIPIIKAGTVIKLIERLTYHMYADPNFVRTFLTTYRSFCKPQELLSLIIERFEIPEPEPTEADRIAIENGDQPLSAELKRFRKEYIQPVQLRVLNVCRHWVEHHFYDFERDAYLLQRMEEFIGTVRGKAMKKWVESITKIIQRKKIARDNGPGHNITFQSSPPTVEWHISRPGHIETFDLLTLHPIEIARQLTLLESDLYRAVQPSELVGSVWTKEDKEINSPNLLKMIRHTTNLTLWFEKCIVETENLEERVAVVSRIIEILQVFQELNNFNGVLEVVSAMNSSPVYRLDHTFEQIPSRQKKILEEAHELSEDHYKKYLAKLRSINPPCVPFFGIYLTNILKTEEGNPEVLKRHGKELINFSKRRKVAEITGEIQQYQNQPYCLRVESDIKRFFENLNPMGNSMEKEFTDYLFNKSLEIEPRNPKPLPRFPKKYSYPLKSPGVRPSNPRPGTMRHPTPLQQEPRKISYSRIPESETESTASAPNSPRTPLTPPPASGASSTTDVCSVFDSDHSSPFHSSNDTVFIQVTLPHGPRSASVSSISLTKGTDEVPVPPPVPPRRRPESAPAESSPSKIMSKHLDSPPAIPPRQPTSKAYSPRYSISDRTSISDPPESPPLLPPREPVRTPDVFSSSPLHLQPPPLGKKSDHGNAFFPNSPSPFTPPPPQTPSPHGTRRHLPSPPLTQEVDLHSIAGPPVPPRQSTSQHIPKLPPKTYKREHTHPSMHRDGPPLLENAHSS

As for `Cc1nc(N[C@H](C)c2cccc(S(=O)(=O)C(F)(F)F)c2F)c2cn(C3(CF)CC3)c(=O)cc2n1` [Compound I-2, (R)-4-((1-(2-fluoro-3-((trifluoromethyl)sulfonyl)phenyl)ethyl)amino)-6-(1-(fluoromethyl)cyclopropyl)-2-methylpyrido[4,3-d]pyrimidin-7(6H)-one], the IC50 in series [1] was found to be 58 nM; in the series with H358 cells, 13.9 nM; at KRAS G12C-SOS1, 7.73 nM. For the same compound, the fraction unbound at 5 h, 1 µM in series [2] came to 0.015; in series [3], 0.028. The “Remaining percentage (%) of compound after incubation for 30 min” value in series [4] was 96.5%. Moreover, the half-life at 1 µM in series [4] was found to be 7.92 h.

As for `Cc1nc(N[C@H](C)c2cccc(S(=O)(=O)C(F)F)c2C)c2cn(C3(CF)CC3)c(=O)cc2n1` [Compound I-1, (R)-4-((1-(3-((difluoromethyl)sulfonyl)-2-methylphenyl)ethyl)amino)-6-(1-(fluoromethyl)cyclopropyl)-2-methylpyrido[4,3-d]pyrimidin-7(6H)-one], the IC50 was determined as 102 nM in series [1], 26 nM with H358 cells and 6.87 nM at KRAS G12C-SOS1. The fraction unbound at 5 h, 1 µM in series [2] came out at 0.042; in series [3], 0.054. For the same compound, in series [4], the “Remaining percentage (%) of compound after incubation for 30 min” value came out at 76.4%. This compound displayed a half-life at 1 µM in series [4] of 1.46 h.
